Results from patent publication EP3513780A1, “METHOD FOR SUPPORTING EPIDERMAL STEM CELL SELF-RENEWAL” (DSM IP Assets B.V., priority 2018, dated 2019).

What was measured:
LCE3D = assay: Gene expression (qPCR) in NHEK: LCE3D; type: cell-based, human; conditions: 24 hours, 0.1 mM (Vitamin B12 0.03 mM), normalized to HPRT1, n.s. = not statistically significant
Experimental: (§1) Vitamin B2, 0.1 mM • 2. D-panthenol, 0.1 mM • 3. Pyridoxine HCl, 0.1 mM • 4. Vitamin B12, 0.03mM • 5. Niacinamide, 0.1 mM • 6. Folic Acid, 0.1 mM
(§2) All Test Materials were diluted in DermaLife K medium.
(§3) Fresh media replacements were performed every other day.
(§4) OpenArray format. […] Each gene was assayed in duplicate.
(§5) See the Endogenous Control Selection section for more details. Unpaired t-tests were carried out using StatMiner software.

hsa-miR-203 = assay: microRNA expression (qPCR) in NHEK: hsa-miR-203; conditions: for Changes in microRNA Expression of hsa-miR-203 (linear fold-change): 24 hours, 0.1 mM (Vitamin B12 0.03 mM), vs Control group, normalized to RNU44, N=4, negative = decrease
Experimental: (§6) The study was conducted to understand how different vitamin B supplements influence microRNA and mRNA gene expression in keratinocytes. MicroRNAs are small, non-coding RNA molecules that function as negative regulators of gene expression. […] The current study was performed using normal human epidermal keratinocytes [NHEK].
as §2
(§7) An initial cytotoxicity screening was performed to evaluate a range of Test Material concentrations prior to the microRNA analysis. […] Pyridoxine HCl, 0.1 mM • 4. Vitamin B12, 0.03mM • 5. Niacinamide, 0.1 mM • 6.
(§8) Unpaired t-tests (p<0.05, N=4) were performed to compare each Test Material group to the Control group. […] An endogenous control microRNAs (RNU44) was used for normalization.
as §1, §3
(§9) The preamplification reaction was run for 12 cycles.
(§10) qPCR Processing: qPCR reactions were run using validated Taqman® MicroRNA assays in a Custom OpenArray format. […] Each microRNA was assayed in duplicate.
(§11) Unpaired t-tests were carried out using StatMiner software.

KLK7 = assay: Gene expression (qPCR) in NHEK: KLK7; type: cell-based, human; conditions: 24 hours, 0.1 mM (Vitamin B12 0.03 mM), normalized to HPRT1, n.s. = not statistically significant
Experimental: as §1, §2, §3, §4, §5

hsa-miR-720 = assay: microRNA expression (qPCR) in NHEK: hsa-miR-720; conditions: 24 hours, 0.1 mM (Vitamin B12 0.03 mM), vs Control group, normalized to RNU44, N=4, negative = decrease
Experimental: as §6, §2, §7, §8, §1, §3, §9, §10, §11

KRT1 = assay: Gene expression (qPCR) in NHEK: KRT1; type: cell-based, human; conditions: 24 hours, 0.1 mM (Vitamin B12 0.03 mM), normalized to HPRT1, n.s. = not statistically significant
Experimental: as §1, §2, §3, §4, §5

KRT10 = assay: Gene expression (qPCR) in NHEK: KRT10; type: cell-based, human; conditions: 24 hours, 0.1 mM (Vitamin B12 0.03 mM), normalized to HPRT1, n.s. = not statistically significant
Experimental: as §1, §2, §3, §4, §5

TP63 = assay: Gene expression (qPCR) in NHEK: TP63; conditions: for Linear Fold-Change Value, Each Group vs the Untreated Control: TP63: 24 hours, 0.1 mM (Vitamin B12 0.03 mM), normalized to HPRT1, n.s. = not statistically significant
Experimental: Cell Culture, Cytotoxicity Screening: NHEK [purchased from Lifeline Cell Technologies] were cultured and maintained at 37°C with 5% CO2 using DermaLife K medium according to the manufacturer's recommendations. Two days prior to treatment, NHEK were seeded at a density of -20,000 cells per cm^2 in 24-well plates. Cultures were approximately 75% confluent at the time of treatment.
Stock solutions and final working concentrations of each Test Material were prepared: The following treatment groups were included in the study (N=4): • 1. Vitamin B2, 0.1 mM • 2. D-panthenol, 0.1 mM • 3. Pyridoxine HCl, 0.1 mM • 4. Vitamin B12, 0.03mM • 5. Niacinamide, 0.1 mM • 6. Folic Acid, 0.1 mM
All Test Materials were diluted in DermaLife K medium. NHEK cultured in DermaLife K medium without added supplements served as the Control group.
Treatment and Maintenance of Cultures: Maintenance medium (DermaLife K) was removed from each culture well and replaced with 500 µL (for 24-well cytotoxicity screening) or 2.0 mL (for 6-well gene expression screening) prewarmed Test Medium. Following application of Test Media, the cultures were returned to the incubator at 37°C with 5 % CO2 for 24 hours.
Treatment and Collection of Cell Culture for Gene Expression: Cultures were seeded at a concentration of 20,000 cells/cm^2 in a 6-well plate and incubated for three days at 37°C with 5 % CO2. Fresh media replacements were performed every other day. On the day of treatment, maintenance medium was replaced with test medium. Following a 24 hour exposure, test medium was removed and cell lysis was performed through the addition of 700uL Qiazol lysis buffer (Qiagen) to each well. Cell lysates were immediately collected and stored at -80°C.
RNA Isolation: Total RNA was isolated from frozen cell lysates using a Qiagen miRNeasy Mini kit following the manufacturer's instructions for cultured cells. Total RNA concentration and purity were determined using a Nanodrop 2000 spectrophotometer.
OpenArray format. OpenArrays were run in a Life Technologies QuantStudio 12K Flex instrument. Each gene was assayed in duplicate.
Data Analysis: qPCR data was imported into RealTime StatMiner software v4.2 for statistical analysis using the relative quantitation (RQ) method. […] Unpaired t-tests were carried out using StatMiner software. Statistically significant changes in gene expression (p<0.05) are reported. Linear fold-change data for each subject was calculated using Microsoft Excel.For RQ values >1.0: Linear fold-change value = RQ value For RQ values < 1.0:Linear ford−change value = −1/RQ value [formula]
Statistical Data Analysis Using Statminer Software: qPCR data is typically expressed in log scale and then converted to a linear fold change value. A log10RQ value of 1.0 is equivalent to a 10-fold change in gene expression. A log10RQ value of 0.3 is equivalent to a 2-fold change in gene expression. The log10RQ values have been converted to linear fold change values to simplify data interpretation.

CALML5 = assay: Gene expression (qPCR) in NHEK: CALML5; type: cell-based, human; conditions: 24 hours, 0.1 mM (Vitamin B12 0.03 mM), normalized to HPRT1, n.s. = not statistically significant
Experimental: as §1, §2, §3, §4, §5

SPINK5 = assay: Gene expression (qPCR) in NHEK: SPINK5; type: cell-based, human; conditions: 24 hours, 0.1 mM (Vitamin B12 0.03 mM), normalized to HPRT1, n.s. = not statistically significant
Experimental: as §1, §2, §3, §4, §5

| Compound | Linear Fold-Change Value, Each Group vs the Untreated Control: LCE3D (LCE3D) | Changes in microRNA Expression of hsa-miR-203 (linear fold-change) (hsa-miR-203) | Linear Fold-Change Value, Each Group vs the Untreated Control: KLK7 (KLK7) | Changes in microRNA Expression of hsa-miR-720 (linear fold-change) (hsa-miR-720) | Linear Fold-Change Value, Each Group vs the Untreated Control: KRT1 (KRT1) | Linear Fold-Change Value, Each Group vs the Untreated Control: KRT10 (KRT10) | Linear Fold-Change Value, Each Group vs the Untreated Control: TP63 (TP63) | Linear Fold-Change Value, Each Group vs the Untreated Control: CALML5 (CALML5) | Linear Fold-Change Value, Each Group vs the Untreated Control: SPINK5 (SPINK5) | fold induction at 100 µM (hsa-miR-203; Homo sapiens, 24 h, read-out: Changes in microRNA Expression of hsa-miR-203 (linear fold-change)) | fold induction at 100 µM (TP63; Homo sapiens, 24 h, read-out: Linear Fold-Change Value, Each Group vs the Untreated Control: TP63) |
| --- | --- | --- | --- | --- | --- | --- | --- | --- | --- | --- | --- |
| CC(C)(CO)[C@@H](O)C(=O)NCCCO [D-Panthenol, (+)-(R)-2,4-Dihydroxy-N-(3-hydroxypropyl)-3,3-dimethylbutyramid] | -1.99 fold | -1.76 fold | -1.60 fold | -2.21 fold | -4.68 fold | -2.26 fold | 1.54 fold | -1.87 fold | -2.00 fold |  |  |
| Nc1nc2ncc(CNc3ccc(C(=O)N[C@@H](CCC(=O)O)C(=O)O)cc3)nc2c(=O)[nH]1 [Folic acid] | -1.72 fold | -1.46 fold | -1.41 fold | -1.64 fold | -3.27 fold | -1.73 fold | 1.43 fold | -1.67 fold | -1.79 fold |  |  |
| NC(=O)c1cccnc1 [Niacinamide, nicotinamide] |  |  | n.s. |  |  | n.s. |  |  | n.s. | 1.03 | 1.21 |
| Cc1ncc(CO)c(CO)c1O.Cl [Pyridoxine HCl] | n.s. | -1.78 fold | -1.44 fold | -1.84 fold | -4.56 fold | -2.45 fold | 1.55 fold | -1.90 fold | -2.05 fold |  |  |
| Cc1cc2nc3c(=O)[nH]c(=O)nc-3n(C[C@H](O)[C@H](O)[C@H](O)CO)c2cc1C [Vitamin B2, riboflavin] | 1.60 fold | -1.96 fold | -2.03 fold | -1.93 fold | -4.00 fold | -2.50 fold | 1.34 fold | -1.24 fold | n.s. |  |  |
| cobalamin [Vitamin B12] | -1.65 fold | -1.46 fold | n.s. | -2.10 fold | -2.42 fold | n.s. |  | -1.73 fold | -1.63 fold |  |  |
